Laboratory results taken from patent US12030876B2, “Aryl hydrocarbon receptor (AHR) agonists and uses thereof” (Ikena Oncology, Inc., priority 2019, dated 2024).
Like-named read-outs stand apart in the source and are kept apart here.

What was measured:
AHR [1] = target: T1, AHR (Mus musculus, UniProt P30561); experiment: P450 CYP1A1 Luciferase Assay, Hepa1.6 (agonist); type: cell-based, murine; conditions: Hepa1.6, Table 2
T1 sequence (P30561 1-848 F348L/P471L): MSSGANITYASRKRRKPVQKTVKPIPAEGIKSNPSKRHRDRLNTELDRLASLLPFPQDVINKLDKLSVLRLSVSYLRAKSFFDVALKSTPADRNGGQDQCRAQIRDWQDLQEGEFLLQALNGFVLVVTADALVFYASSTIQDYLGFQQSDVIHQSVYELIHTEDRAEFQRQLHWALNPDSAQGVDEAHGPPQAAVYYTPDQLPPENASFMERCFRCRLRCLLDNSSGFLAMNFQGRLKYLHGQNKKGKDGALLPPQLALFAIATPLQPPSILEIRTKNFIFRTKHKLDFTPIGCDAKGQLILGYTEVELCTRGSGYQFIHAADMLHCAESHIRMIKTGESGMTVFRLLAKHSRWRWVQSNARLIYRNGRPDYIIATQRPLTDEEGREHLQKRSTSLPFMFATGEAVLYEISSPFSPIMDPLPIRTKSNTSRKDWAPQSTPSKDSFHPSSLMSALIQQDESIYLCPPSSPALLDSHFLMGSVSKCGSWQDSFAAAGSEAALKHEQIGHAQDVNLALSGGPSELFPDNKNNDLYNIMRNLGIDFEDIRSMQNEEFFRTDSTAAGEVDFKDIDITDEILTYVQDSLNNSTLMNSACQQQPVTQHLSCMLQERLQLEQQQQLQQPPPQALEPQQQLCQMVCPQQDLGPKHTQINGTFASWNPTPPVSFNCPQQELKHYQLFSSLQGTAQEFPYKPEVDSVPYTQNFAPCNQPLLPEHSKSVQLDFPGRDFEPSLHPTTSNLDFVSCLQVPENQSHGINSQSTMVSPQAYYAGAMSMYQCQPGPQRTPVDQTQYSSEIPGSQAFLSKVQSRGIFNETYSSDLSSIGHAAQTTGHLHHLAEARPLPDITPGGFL
Description: P450 CYP1A1 Luciferase Assay
AHR binds to Dioxin Responsive Elements (DRE) upstream of genes that it activates. One measure of AHR activity is P450 CYP1A1 protein levels determined by measuring CYP1A1 enzyme activity using a luminogenic CYP1A1 luciferin-based substrate. Luciferase activity will reflect CYP1A1 activity resulting from activation of AHR in the cells.
Murine Hepa1-6 or Hepa-1c1c7 or other murine cell line, human HepG2 or other human cell line are plated in media (96-well, 384-well or other plates) and incubated overnight at 37 C in a CO2 incubator.
(§1) The next day, an AHR agonist compound is added. Cells are incubated for 6, 16 or 24 hours or another time point and then lysed and incubated with a CYP1A1 luciferase-based substrate (e.g. Luciferin-CEE) for 3, 6, or 12 hours of another time point. Determination of luciferase activity as a read-out of CYP1A1 enzyme activity can be measured with a commercial kit such as the Promega P450 Glo CYP1A1 detection reagent or any kit or reagents that provide for measuring luciferase activity. The level of luciferase with only activating ligand (e.g. such as TCDD, kynurenine, ITE (2-(1H-indole-3-ylcarbonyl)-4-thiazolecarboxylic methyl ester), VAF347, BNF (beta-naphthoflavone), ICZ (6-formylindolo(3,2-b) carbazole or other AHR ligands) added is the maximum signal while the luciferase with no ligand is the minimum signal. EC50s can be determined as the concentration which activates half of the maximum luciferase activity.

AHR [2] = target: T2, AHR (Homo sapiens, UniProt P35869); experiment: DRE-Luciferase Reporter Assay, HepG2 (agonist); type: cell-based; conditions: read-out: DRE-Luc HepG2 - Agonist: Average EC50
T2 construct: endogenous in cells; host or cells: HepG2 (human), transfected with a DRE-luciferase reporter only
T2 sequence (P35869 11-848): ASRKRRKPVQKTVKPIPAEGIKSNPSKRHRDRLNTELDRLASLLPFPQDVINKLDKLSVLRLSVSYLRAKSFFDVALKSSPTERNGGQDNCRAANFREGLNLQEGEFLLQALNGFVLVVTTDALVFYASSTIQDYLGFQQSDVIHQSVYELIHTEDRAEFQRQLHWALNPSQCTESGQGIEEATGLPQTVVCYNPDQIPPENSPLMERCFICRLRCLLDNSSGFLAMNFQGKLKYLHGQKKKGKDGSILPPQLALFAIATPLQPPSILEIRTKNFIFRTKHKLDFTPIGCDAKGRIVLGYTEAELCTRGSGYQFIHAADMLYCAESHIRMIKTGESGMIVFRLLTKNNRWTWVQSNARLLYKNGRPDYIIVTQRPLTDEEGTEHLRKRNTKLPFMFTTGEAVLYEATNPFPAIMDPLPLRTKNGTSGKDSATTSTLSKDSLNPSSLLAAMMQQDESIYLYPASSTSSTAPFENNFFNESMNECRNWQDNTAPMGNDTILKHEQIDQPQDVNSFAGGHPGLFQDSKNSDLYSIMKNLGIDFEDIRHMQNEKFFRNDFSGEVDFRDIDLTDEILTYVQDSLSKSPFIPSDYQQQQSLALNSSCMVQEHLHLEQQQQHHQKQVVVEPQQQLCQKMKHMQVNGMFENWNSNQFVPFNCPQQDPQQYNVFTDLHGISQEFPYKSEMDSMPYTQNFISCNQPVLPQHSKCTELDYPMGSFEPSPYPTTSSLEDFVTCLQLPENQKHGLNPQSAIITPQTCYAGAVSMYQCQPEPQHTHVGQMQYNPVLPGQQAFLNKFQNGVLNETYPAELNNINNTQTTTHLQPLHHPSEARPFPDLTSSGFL
Description: (§2) DRE-Luciferase Reporter Assay
(§3) AHR binds to Dioxin Responsive Elements (DRE) upstream of genes that it activates. One measure of AHR activity is activation of a reporter gene, such as luciferase, downstream of one or multiple DRE elements. Luciferase activity reflects activation and inhibition of AHR in the cells expressing this reporter.
(§4) Murine Hepa1-6 or Hepa-1c1c7 or other murine cell line with a DRE-luciferase reporter either stably or transiently transfected are plated in media in plates (96-well, 384-well or other plates) and incubated overnight at 37 C in a CO2 incubator. Likewise, human HepG2 or other human cell line with a DRE-luciferase reporter either stably or transiently transfected are plated in media in plates (96-well, 384-well or other plates) and incubated overnight at 37 C in a CO2 incubator.
as §1, with “lysed” for “lysed and incubated with a CYP1A1 luciferase-based substrate (e.g. Luciferin-CEE)”, “determination” for “3, 6, or 12 hours of another time point. Determination”, “the AHR activation. Luciferase” for “CYP1A1 enzyme activity”, “Luciferase kit” for “P450 Glo CYP1A1 detection reagent”, “provide the luciferin substrate” for “provide”

AHR [3] = target: T1, AHR; experiment: DRE-Luciferase Reporter Assay, Hepa1.6 (agonist); type: cell-based, murine; conditions: Hepa1.6, Table 3; read-out: DRE-Luc Hepa1.6 - Agonist: Average EC50
Description: as §2, §3, §4
as §1, with “lysed” for “lysed and incubated with a CYP1A1 luciferase-based substrate (e.g. Luciferin-CEE)”, “determination” for “3, 6, or 12 hours of another time point. Determination”, “the AHR activation. Luciferase” for “CYP1A1 enzyme activity”, “Luciferase kit” for “P450 Glo CYP1A1 detection reagent”, “provide the luciferin substrate” for “provide”

Structure (SMILES)	EC50 (AHR [1]) [nM]	EC50 (AHR [2]; HepG2, Table 2) [nM]	EC50 (AHR [2]; HepG2, Table 3) [nM]	EC50 (AHR [3]) [nM]
FC(F)(F)c1cccc(Nc2nc(-c3cccc(Cl)c3)ns2)c1 [I-58]	> 1000	< 10		
FC(F)(F)c1cccc(Nc2ncc(-c3cccc(Cl)c3)o2)c1 [I-59]	> 1000	< 10		
FC(F)(F)c1cccc(Nc2cc(-c3cccc(Cl)c3)cs2)c1 [I-60]	> 1000	10 to 100		
FC(F)(F)c1cccc(Nc2cc(-c3cccc(Cl)c3)cs2)c1 [I-61]	> 1000	100 to 1000		
[O-][n+]1cc(Cl)cc(-c2csc(Nc3cccc(C(F)(F)F)c3)n2)c1 [I-107]			< 10	> 1000
N#Cc1cccc(-c2nsc(Nc3cccc(C(F)(F)F)c3)n2)c1 [I-109]			< 10	> 1000
N#Cc1cccc(-c2cnc(Nc3cccc(C(F)(F)F)c3)o2)c1 [I-112]			< 10	> 1000
[O-][n+]1cccc(-c2nsc(Nc3cccc(C(F)(F)F)c3)n2)c1 [I-117]			< 10	> 1000
O=[N+]([O-])c1cc(-c2csc(Nc3cccc(C(F)(F)F)c3)n2)c[n+]([O-])c1 [I-120]			< 10	100 to 1000
[O-][n+]1cccc(-c2csc(Nc3cccc(C(F)(F)F)n3)n2)c1 [I-121]			< 10	> 1000
OCc1cccc(-c2csc(Nc3cccc(C(F)(F)F)c3)n2)c1 [I-125]			10 to 100	> 1000

Second part, the compound after the results:

EC50 (AHR [1]) [nM]	EC50 (AHR [2]; HepG2, Table 2) [nM]	EC50 (AHR [2]; HepG2, Table 3) [nM]	EC50 (AHR [3]) [nM]	Structure (SMILES)
		< 10	100 to 1000	O=c1ccc(-c2csc(Nc3cccc(C(F)(F)F)c3)n2)c[nH]1 [I-83]
		< 10	> 1000	N#Cc1cncc(-c2csc(Nc3cccc(C(F)(F)F)c3)n2)c1 [I-87]
		< 10	> 1000	O=[N+]([O-])c1cccc(-c2csc(Nc3cccc(C(F)(F)F)n3)n2)c1 [I-89]
		< 10	> 1000	N#Cc1cccc(-c2csc(Nc3cccc(C(F)(F)F)n3)n2)c1 [I-90]
		< 10	10 to 100	FC(F)(F)c1cccc(Nc2nc(-c3cncc(Cl)c3)cs2)c1 [I-91]
		< 10	100 to 1000	C[n+]1cccc(-c2csc(Nc3cccc(C(F)(F)F)c3)n2)c1 [I-92]
		< 10	> 1000	O=c1cc(-c2csc(Nc3cccc(C(F)(F)F)c3)n2)cc[nH]1 [I-93]
		< 10	10 to 100	N#Cc1cccc(-c2csc(Nc3cncc(C(F)(F)F)c3)n2)c1 [I-97]
		< 10	> 1000	N#Cc1cc(-c2csc(Nc3cccc(C(F)(F)F)c3)n2)c[n+]([O-])c1 [I-100]
